A word on the MIC: it is the lowest concentration that inhibits growth of the organism. The melting point is the temperature of the solid-liquid transition.

The test system of data set [1] is Staphylococcus aureus (ATCC 6538P). Kind of data set: Antibacterial screen (MIC, 96 well microtitre broth dilution) against S. aureus. Format: cell-based. To be noted: 37° C. for 18 hours, highest dilution of compound that prevented bacterial growth. The procedure:
General Methods for Antibacterial Screens
• SA: Staphylococcus aureus • PA: Pseudomonas aeruginosa • KP: Klebsiella pneumoniae • SP: Streptococcus pneumoniae Bacterial Strains Used: • Staphylococcus aureus (ATCC 6538P) • Pseudonmonas aeruginosa (ATCC 27853) • Klebsiella pneumoniae (IP103623) • Streptococcus pneumoniae (IP53146) Culture Media
Mueller-Hinton Broth Medium (MHB): MHB (Oxoid CM405) was prepared with final concentrations of 1 μg/mL MgCl2 and 2 μg/mL CaCl2. Culture medium was pre-warmed for approximately 2-3 hours at 37° C. before use.
From thawed cryovials, P. aeruginosa, K. pneumoniae and S. aureus were streaked onto Mueller Hinton Agar (MHA), and S. pneumoniae was streaked onto Blood Agar (BA), and plates were incubated overnight at 37° C. For each bacterial strain, 10 cryovials were prepared by looping several colonies into 0.5 mL of 20% glycerol solution. The cryovials were immediately stored at −140° C.
A cryovial was removed from −140° C. storage and thawed at room temperature. An MHA plate was streaked with a loopful of bacterial suspension and incubated overnight at 37° C. to create a parent plate (P1). A daughter plate (D1) was streaked from the parent plate and incubated overnight at 37° C. The parent plate was stored at 4° C. A loop of colony from the daughter plate was used to inoculate a 125 mL flask containing 20 mL of Mueller Hinton Broth (MHB) containing 25 μg/mL CaCl2.2H2O and 12.5 μ/mL MgCl2.6H2O. The flask was shaken at 260 rpm for 18 hours at 37° C. on an orbital incubator shaker. The parent plate (P1) was reused within 9 days to generate another daughter plate (D2), which, in turn, was used to inoculate a broth culture. Parent plates were used twice (to generate D1 and D2 plates) before a new one was prepared from the previously thawed cryovial. The second parent plate (P2) was used to generate two additional daughter plates using the procedure outlined above before being discarded. Cryovials were used twice to prepare parent plates (P1 and P2) before being discarded.
Prepare a 1/10 dilution of Seed Cultures by adding 250 μl of the cultures to 2,250 μl of MHB in a disposable cuvette. Read OD650 and multiply OD650 by a factor of 10 to calculate the optical density of the undiluted culture. Calculate the required dilution factor by dividing the observed OD650 by the standard OD650 for each strain (previously determined in assay optimisation studies).
Prepare sufficient volumes of the final inoculum cultures in pre-warmed MHB (37° C.) by diluting the standardised cultures to the required final concentration. The final dilutions used for each of the bacterial strains were as follows: • K. pneumoniae—10^6 dilution; • P. aeruginosa—10^6 dilution; • S. aureus—10^8 dilution; • S. pneumoniae—10^4 dilution. Assay Procedure (for 96 well Microtiter Plates)
Add 50 microliters of liquid medium to each well of a 96 well microtitre plate. Dissolve test samples in liquid medium. Add 50 microliters of test sample in triplicate to the top row of the microtitre plate, and include a vancomycin control set. Also include a compound negative control well set. Allow inoculated culture medium to incubate at 37° C. for 30 minutes, shaking at 130 rpm. Using a multichannel pipette, mix the contents of the first row and transfer 50 microliters of mixed broth solutions to the next row, change tips and repeat until the last row contains diluted compound or control and discard 50 microliters from the last row. Each well should now contain 50 microliters of diluted compound or negative control medium. Using a multistepper pipette add 50 microliters of inoculum to each well of the plate, save for one row containing the compound negative control, to this row add 50 microliters of liquid broth. Incubate plates at 37° C. for 18 hours, shaking at 100 rpm in an environment of approximately 90% relative humidity. Results were recorded as the highest dilution of compound that prevented bacterial growth (MIC).
For orientation: Broth dilution looks for growth in wells or tubes with falling amounts of substance.

The subject of data set [2] is D-Ala-D-lactate terminus of the peptidoglycan. To be noted: D-Ala-D-lactate terminus versus D-Ala-D-Ala terminus; cited from earlier work.
The mark [3] stands for this setting: Staphylococcus aureus, ATCC6538P, read-out: MIC.

≈ marks a conversion by molar mass, not a printed value. Like-named read-outs stand apart in the source and are kept apart here.

As to `COC(=O)C1CCC=COc2ccc3ccccc3c2-c2c(ccc3ccccc23)OCCCC(=O)NC(CCCCNC(=N)N)C(=O)N1.Cl` [Example 113, (aR/S,9R,12S)-8,11-diaza-9-(4-guanidinobutyl)-12-methoxycarbonyl-1(1,2),2(1,2)-dinaphthalena-3,17-dioxa-7,10-dioxoheptadecaphane-15-ene hydrochloride], in data set [1], the MIC was found to be 8 µg/mL.

Molecule “6-Acetamido-9-(4-aminobutyl)-8,11-diaza-12-methoxycarbonyl-7,10-dioxo-[12](3,6)-1H-carbazolophane HCl (9R,12S) [Example 42]” showed an MIC in data set [1] of 64 µg/mL.

Take `COC(=O)C1CC=CCc2cc3ccccc3c(c2OC)-c2c(OC)c(cc3ccccc23)CC(NC(C)=O)C(=O)NC(CCCNC(=N)N)C(=O)N1.Cl` (single isomer, unassigned) [21A (another isomer)]: the MIC in data set [1] (hydrochloride) is 64 µg/mL.

In the case of `C=CCc1cc2ccccc2c(-c2c(OC)c(CC(NC(C)=O)C(=O)N[C@H](CCCCNC(=O)OC(C)(C)C)C(=O)N[C@@H](CC=C)C(=O)OCc3ccccc3)cc3ccccc23)c1OC` (stereo partly drawn) [Example 13A, benzyl (aR/S,2S,5R)-8-acetamido-2-allyl-9-{3-[3′-allyl-2,2′-dimethoxy-1,1′-binaphthyl]}-3,6-diaza-5-(4-{[(tert-butoxy)carbonyl]amino}butyl)-4,7-dioxononanoate], in data set [1], the MIC was 4 µg/mL (≈ 4.45 µM).

For `C=CCOc1ccc2ccccc2c1-c1c(OCC(=O)N[C@H](CCCCN)C(=O)N[C@@H](CC=C)C(=O)OC)ccc2ccccc12.Cl` [Example 97], in data set [1] (setting [3]), the MIC was determined as 4 µg/mL.

Turning to “6-Acetamido-8,11-diaza-14-ene-9-(3-guanidinopropyl)-12-methoxycarbonyl-7,10-dioxo-[12](3,6)-1H-carbazolophane HCl (9R,12S) [Example 37]”, the MIC in data set [1] is 64 µg/mL.

In turn, “methyl (aR/S,2S,5R)-2-allyl-5-[2-({[(2′-allyloxy-1,1′-binaphthoxymethyl]carbonyl}amino)-3-aza-9-guanidino-4-oxononanoate hydrochloride [Example 101]” showed an MIC in data set [1] of 8 µg/mL.

As for `C=CC[C@H](NC(=O)[C@H](CCCCN)NC(=O)Cc1cn(CC=C)c2ccccc12)C(=O)OC`, the melting point fell in the range of 103 to 106 °C.

“6-Acetamido-8,11-diaza-9-(3-guanidinopropyl)-12-methoxycarbonyl-7,10-dioxo-[12](3,6)-1H-carbazolophane HCl (9S,12S) [Example 36]” displayed an MIC in data set [1] of 32 µg/mL.

Take “6-Acetamido-9-(4-aminobutyl)-8,11-diaza-12-methoxycarbonyl-7,10-dioxo-[12](3,6)-1H-carbazolophane HCl (9S,12S) [Example 40]”: the MIC in data set [1] amounted to 64 µg/mL.

`C=CCOc1ccc2ccccc2c1-c1c(OCCCC(=O)N[C@H](CCCCNC(=N)N)C(=O)N[C@@H](CC=C)C(=O)OC)ccc2ccccc12.Cl` [Example 111, methyl (aS/R,2S,5R)-2-allyl-10-(2′-allyloxy-1,1′-binaphth-2-oxy)-3,6-diaza-5-(4-guanidinobutyl)-4,7-dioxodecanoate hydrochloride] gave an MIC in data set [1] of 8 µg/mL.

For the molecule `COC(=O)C1CC=CCc2cc3ccccc3c(c2OC)-c2c(OC)c(cc3ccccc23)CC(NC(C)=O)C(=O)NC(CCCCN)C(=O)N1.Cl` (single isomer, unassigned) [15 (one isomer)], in data set [1], the minimum inhibitory concentration (MIC) was found to be 8 µg/mL.

Regarding `CN[C@H](CC(C)C)C(=O)N[C@H]1C(=O)N[C@@H](CC(N)=O)C(=O)N[C@H]2C(=O)N[C@H]3C(=O)N[C@H](C(=O)N[C@H](C(=O)O)c4cc(O)cc(O)c4-c4cc3ccc4O)[C@H](O)c3ccc(c(Cl)c3)Oc3cc2cc(c3O[C@@H]2O[C@H](CO)[C@@H](O)[C@H](O)[C@H]2O[C@H]2C[C@](C)(N)[C@H](O)[C@H](C)O2)Oc2ccc(cc2Cl)[C@H]1O` [Vancomycin], the decrease in affinity result in data set [2] is reported as “ca. 1000 fold”.

Regarding `COC(=O)C1CC=CCc2cc3ccccc3c(c2OC)-c2c(OC)c(cc3ccccc23)CC(NC(C)=O)C(=O)NC(CCCNC(=N)N)C(=O)N1.Cl` (single isomer, unassigned) [21A (one isomer)], the MIC in data set [1] (hydrochloride) is 16 µg/mL.

With `C=CCOc1ccc2ccccc2c1-c1c(OCCCC(=O)N[C@H](CCCCN)C(=O)N[C@@H](CC=C)C(=O)OC)ccc2ccccc12.Cl` [Example 107, methyl (aS/R,2S,5R)-2-allyl-10-(2′-allyloxy-1,1′-binaphth-2-oxy)-5-(4-aminobutyl)-3,6-diaza-4,7-dioxodecanoate hydrochloride], in data set [1] (setting [3]), the MIC came out at 16 µg/mL.

In turn, `COC(=O)C1CCCCc2cc3ccccc3c(c2OC)-c2c(OC)c(cc3ccccc23)CC(NC(C)=O)C(=O)NC(CCCCN)C(=O)N1.Cl` [Example 15A, (aR/S,7R,10S)-4-acetamido-7-(4-aminobutyl)-6,9-diaza-10-methoxycarbonyl-1(1,3),2(1,3)-di(2-methoxynaphthalena)-5,8-dioxocyclotetradecaphane hydrochloride] came in with an MIC in data set [1] of 16 µg/mL.

“(aR/S,7R,10S)-4-acetamido-6,9-diaza-10-benzyloxycarbonyl-7-(4-{[(tert-butoxy)carbonyl]amino}butyl)-1(1,3),2(1,3)-di(2-methoxynaphthalena)-5,8-dioxocyclotetradecaphane-12-ene [Example 15B]” yielded an MIC in data set [1] of 16 µg/mL.

Consider `COC(=O)[C@@H]1CC=CCOc2ccc3ccccc3c2-c2c(ccc3ccccc23)OCC(=O)N[C@H](CCCCNC(=N)N)C(=O)N1.Cl` [Example 103, (aR,S,7R,10S)-6,9-diaza-3,15-dioxa-5,8-dioxo-7-(4-guanidinobutyl)-10-methoxycarbonyl-1(1,2),2(1,2)-dinaphthalenacyclopentadecaphane-12-ene hydrochloride], for which the MIC in data set [1] is 8 µg/mL.

`CCCc1ccc2[nH]c3ccc(CC(NC(C)=O)C(=O)N[C@H](CCCCN)C(=O)N[C@@H](CCC)C(=O)OC)cc3c2c1.Cl` (single isomer, unassigned) [44 (one isomer)] gave an MIC in data set [1] of 32 µg/mL.

For `COC(=O)[C@@H]1C/C=C/COc2ccc3ccccc3c2-c2c(ccc3ccccc23)OCCCC(=O)N[C@H](CCCCN)C(=O)N1.Cl` [Example 109], the MIC in data set [1] (setting [3]) turned out to be 64 µg/mL.

Molecule “6-Acetamido-8,11-diaza-9-(3-guanidinopropyl)-12-methoxycarbonyl-7,10-dioxo-[12](3,6)-1H-carbazolophane HCl (9R,12S) [Example 38]” registered an MIC in data set [1] of 32 µg/mL.

`CCCc1ccc2[nH]c3ccc(CC(NC(C)=O)C(=O)N[C@H](CCCCN)C(=O)N[C@@H](CCC)C(=O)OC)cc3c2c1.Cl` (single isomer, unassigned) [44 (another isomer)] came in with an MIC in data set [1] of 64 µg/mL.

As for “6-Acetamido-9-(4-aminobutyl)-8,11-diaza-1-tert-butoxycarbonyl-14-ene-12-methoxycarbonyl-7,10-dioxo-[12](3,6)-1H-carbazolophane HCl (9S,12S) [Example 39A]”, in data set [1], the MIC is 32 µg/mL.

In data set [1], `C=CCc1cc2ccccc2c(-c2c(OC)c(CC(NC(C)=O)C(=O)N[C@H](CCCNC(=N)N)C(=O)N[C@@H](CC=C)C(=O)OC)cc3ccccc23)c1OC.Cl` (stereo partly drawn) [Example 19A, methyl (aR/S,2S,5R)-8-acetamido-2-allyl-9-[3-(3′-allyl-2,2′-dimethoxy-1,1′-binaphthyl)]-3,6-diaza-5-(3-guanidinopropyl)-4,7-dioxononanoate hydrochloride] showed an MIC of 4 µg/mL.

Values taken from US7612036B2, “Peptoid compounds” (University of Wollongong, priority 2001, dated 2009).
